The experiment concerns the target T1, Human Polθ polymerase domain (aa1820-2590) (Homo sapiens, UniProt O75417).
T1 construct: Human Polθ polymerase domain (aa1820-2590) was expressed in E. Coli; made in house; host or cells: E. coli
T1 sequence (O75417 1820-2590): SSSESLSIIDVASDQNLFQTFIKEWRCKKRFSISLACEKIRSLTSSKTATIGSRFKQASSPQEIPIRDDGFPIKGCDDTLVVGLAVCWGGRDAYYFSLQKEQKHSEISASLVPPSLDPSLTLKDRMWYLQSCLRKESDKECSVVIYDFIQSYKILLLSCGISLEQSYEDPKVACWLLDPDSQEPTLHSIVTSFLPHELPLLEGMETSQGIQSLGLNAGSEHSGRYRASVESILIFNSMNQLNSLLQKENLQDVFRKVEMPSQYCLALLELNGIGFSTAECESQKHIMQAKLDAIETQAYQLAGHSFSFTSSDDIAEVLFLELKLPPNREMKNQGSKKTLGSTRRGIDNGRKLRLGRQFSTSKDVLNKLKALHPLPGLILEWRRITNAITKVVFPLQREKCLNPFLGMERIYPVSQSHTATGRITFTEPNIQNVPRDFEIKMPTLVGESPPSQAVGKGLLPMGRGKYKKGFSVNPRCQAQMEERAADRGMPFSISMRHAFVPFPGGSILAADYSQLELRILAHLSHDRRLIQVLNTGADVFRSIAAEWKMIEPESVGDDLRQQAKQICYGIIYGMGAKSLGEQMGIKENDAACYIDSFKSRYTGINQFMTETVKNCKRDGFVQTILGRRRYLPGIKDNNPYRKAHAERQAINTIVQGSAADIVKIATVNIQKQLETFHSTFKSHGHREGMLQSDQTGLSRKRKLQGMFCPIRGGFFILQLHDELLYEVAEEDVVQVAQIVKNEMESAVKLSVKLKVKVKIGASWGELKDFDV
Description: Polθ Polymerase Domain WT KI Assay (PicoGreen). In kind it is biochemical. The settings on record: 100 nM DNA substrate, 0.156 nM Polθ, initial rates vs inhibitor concentration. In short, it runs like this:
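E. coli-expressed human Polθ polymerase domain (aa1820-2590) on annealed DNA II Short/Long primer-template (1.2:1), in 25 mM Tris pH 7.5, NaCl, 5% glycerol, 0.01% Triton X-100, 0.1 mg/ml BSA, 1 mM DTT, 1% DMSO. EDTA-quenched timepoints to 180 min, PicoGreen fluorescence. Initial rates vs inhibitor concentration fitted four-parameter for KI.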

The structures appear in SMILES notation. Counter-ions that a name gives are not always drawn.

On to `Cc1cc(C(F)(F)F)cc(N2C(=O)C[C@@H]3CN(CCN4CCN5C(=O)COC[C@H]5C4)c4c(Cl)cccc4N(C)C(=O)[C@H]32)n1` [Example 43, (3aR,11aS)-6-Chloro-10-methyl-1-(6-methyl-4-(trifluoromethyl)pyridin-2-yl)-5-(2-((R)-4-oxohexahydropyrazino[2,1-c][1,4]oxazin-8(1H)-yl)ethyl)-1,3a,4,5,10,11a-hexahydro-2H-benzo[b]pyrrolo[2,3-f][1,4]diazocine-2,11(3H)-dione], for which affinity was put at a Ki of 3.05 nM. In the case of `Cc1cc(C(F)(F)F)cc(N2C(=O)C[C@@H]3CN(Cc4cn5c(n4)CN(C)CC5)c4c(C)cccc4N(C)C(=O)[C@H]32)n1` [Example 121, (3aR,11aS)-6,10-Dimethyl-1-(6-methyl-4-(trifluoromethyl)pyridin-2-yl)-5-((7-methyl-5,6,7,8-tetrahydroimidazo[1,2-a]pyrazin-2-yl)methyl)-1,3a,4,5,10,11a-hexahydro-2H-benzo[b]pyrrolo[2,3-f][1,4]diazocine-2,11(3H)-dione] it was 0.258 nM; in that of `C=CCN1C[C@H]2CC(=O)N(c3cc(C(F)(F)F)cc(C)n3)[C@@H]2C(=O)N(C)c2cccc(F)c21` [Example 4, (3aR,11aS)-5-Allyl-6-fluoro-10-methyl-1-(6-methyl-4-(trifluoromethyl)pyridin-2-yl)-1,3a,4,5,10,11a-hexahydro-2H-benzo[b]pyrrolo[2,3-f][1,4]diazocine-2,11(3H)-dione], 8.33 nM; in that of `Cc1cc(C(F)(F)F)cc(N2C(=O)C[C@@H]3CN(C[C@@H]4CCCN4)c4c(Cl)cccc4N(C)C(=O)[C@H]32)n1` (racemic) [Example 107b, (3aR,11aS)-6-Chloro-10-methyl-1-(6-methyl-4-(trifluoromethyl)pyridin-2-yl)-5-(((S/R)-pyrrolidin-2-yl)methyl)-1,3a,4,5,10,11a-hexahydro-2H-benzo[b]pyrrolo[2,3-f][1,4]diazocine-2,11(3H)-dione], 5.21 nM.

The compound `COc1ccnc(N2C[C@H]3CC(=O)N(c4cc(C(F)(F)F)cc(C)n4)[C@@H]3C(=O)N(C)c3cccc(F)c32)c1` [Example 140, (3aR,11aS)-6-Fluoro-5-(4-methoxypyridin-2-yl)-10-methyl-1-(6-methyl-4-(trifluoromethyl)pyridin-2-yl)-1,3a,4,5,10,11a-hexahydro-2H-benzo[b]pyrrolo[2,3-f][1,4]diazocine-2,11(3H)-dione] yielded a Ki of 79.6 nM.

For `Cc1cc(C(F)(F)F)cc(N2C(=O)C[C@@H]3CN(CC4CCCN4C)c4c(Cl)cccc4N(C)C(=O)[C@H]32)n1` (single isomer, unassigned) [Example 118a], the Ki came to 8.5 nM. In the case of `Cc1cc(C(F)(F)F)cc(N2C(=O)C[C@@H]3CN(CCN4CCN(C)C[C@H]4C)c4c(C)cccc4N(C)C(=O)[C@H]32)n1` [Example 48, (3aR,11aS)-5-(2-((R)-2,4-Dimethylpiperazin-1-yl)ethyl)-6,10-dimethyl-1-(6-methyl-4-(trifluoromethyl)pyridin-2-yl)-1,3a,4,5,10,11a-hexahydro-2H-benzo[b]pyrrolo[2,3-f][1,4]diazocine-2,11(3H)-dione dihydrochloride] it was 0.307 nM. In the case of `Cc1cc(C(F)(F)F)cc(N2C(=O)C[C@@H]3CN(CCN4CC5(CCO5)C4)c4c(C)cccc4N(C)C(=O)[C@H]32)n1` [Example 14, (3aR,11aS)-5-(2-(1-Oxa-6-azaspiro[3.3]heptan-6-yl)ethyl)-6,10-dimethyl-1-(6-methyl-4-(trifluoromethyl)pyridin-2-yl)-1,3a,4,5,10,11a-hexahydro-2H-benzo[b]pyrrolo[2,3-f][1,4]diazocine-2,11(3H)-dione] it was 0.757 nM; in that of `Cc1cc(C(F)(F)F)cc(N2C(=O)C[C@@H]3CN(C[C@@H]4CCCN4C)c4c(Cl)cccc4N(C)C(=O)[C@H]32)n1` (racemic) [Example 118b, (3aR,11aS)-6-Chloro-10-methyl-1-(6-methyl-4-(trifluoromethyl)pyridin-2-yl)-5-(((S/R)-1-methylpyrrolidin-2-yl)methyl)-1,3a,4,5,10,11a-hexahydro-2H-benzo[b]pyrrolo[2,3-f][1,4]diazocine-2,11(3H)-dione], 6.04 nM; in that of `Cc1cc(C(F)(F)F)cc(N2C(=O)C[C@@H]3CN(C[C@H]4CNC[C@@H]4O)c4c(F)cccc4N(C)C(=O)[C@H]32)n1` (relative stereo) [Example 91, (3aR,11aS)-6-Fluoro-5-(((rel-trans)-4-hydroxypyrrolidin-3-yl)methyl)-10-methyl-1-(6-methyl-4-(trifluoromethyl)pyridin-2-yl)-1,3a,4,5,10,11a-hexahydro-2H-benzo[b]pyrrolo[2,3-f][1,4]diazocine-2,11(3H)-dione], 17.3 nM. With `Cc1cc(C(F)(F)F)cc(N2C(=O)C[C@@H]3CN(C[C@H]4CCNC[C@H]4C#N)c4c(Cl)cccc4N(C)C(=O)[C@H]32)n1` (relative stereo) [Example 102, (rel-cis)-4-(((3aR,11aS)-6-Chloro-10-methyl-1-(6-methyl-4-(trifluoromethyl)pyridin-2-yl)-2,11-dioxo-1,2,3,3a,4,10,11,11a-octahydro-5H-benzo[b]pyrrolo[2,3-f][1,4]diazocin-5-yl)methyl)piperidine-3-carbonitrile hydrochloride] the figure was 1.77 nM; with `Cc1cc(C(F)(F)F)cc(N2C(=O)C[C@@H]3CN(CCN4CCN(C)[C@@H](CO)C4)c4c(C)cccc4N(C)C(=O)[C@H]32)n1` [Example 63, (3aR,11aS)-5-(2-((R)-3-(Hydroxymethyl)-4-methylpiperazin-1-yl)ethyl)-6,10-dimethyl-1-(6-methyl-4-(trifluoromethyl)pyridin-2-yl)-1,3a,4,5,10,11a-hexahydro-2H-benzo[b]pyrrolo[2,3-f][1,4]diazocine-2,11(3H)-dione], 1.07 nM; with `Cc1cc(C(F)(F)F)cc(N2C(=O)C[C@@H]3CN(C[C@@H]4CCNC4)c4c(C)cccc4N(C)C(=O)[C@H]32)n1` [Example 103, (3aR,11aS)-6,10-Dimethyl-1-(6-methyl-4-(trifluoromethyl)pyridin-2-yl)-5-(((R)-pyrrolidin-3-yl)methyl)-1,3a,4,5,10,11a-hexahydro-2H-benzo[b]pyrrolo[2,3-f][1,4]diazocine-2,11(3H)-dione hydrochloride], 2.43 nM.

Compound `Cc1cc(C(F)(F)F)cc(N2C(=O)C[C@@H]3CN(Cc4nc5n(c4F)CCN(C)C5)c4c(C)cccc4N(C)C(=O)[C@H]32)n1` [Example 83, (3aR,11aS)-5-((3-Fluoro-7-methyl-5,6,7,8-tetrahydroimidazo[1,2-a]pyrazin-2-yl)methyl)-6,10-dimethyl-1-(6-methyl-4-(trifluoromethyl)pyridin-2-yl)-1,3a,4,5,10,11a-hexahydro-2H-benzo[b]pyrrolo[2,3-f][1,4]diazocine-2,11(3H)-dione] gave an inhibitory constant (Ki) of 0.254 nM. In the case of `Cc1cc(C(F)(F)F)cc(N2C(=O)C[C@@H]3CN(CCN4CCN(C)[C@@H](C)C4)c4c(C)cccc4N(C)C(=O)[C@H]32)n1` [Example 46, (3aR,11aS)-5-(2-((S)-3,4-Dimethylpiperazin-1-yl)ethyl)-6,10-dimethyl-1-(6-methyl-4-(trifluoromethyl)pyridin-2-yl)-1,3a,4,5,10,11a-hexahydro-2H-benzo[b]pyrrolo[2,3-f][1,4]diazocine-2,11(3H)-dione dihydrochloride] it was 0.515 nM; in that of `Cc1cc(C(F)(F)F)cc(N2C(=O)C[C@@H]3CN(CCN4CCN(CCO)CC4)c4c(C)cccc4N(C)C(=O)[C@H]32)n1` [Example 53, (3aR,11aS)-5-(2-(4-(2-Hydroxyethyl)piperazin-1-yl)ethyl)-6,10-dimethyl-1-(6-methyl-4-(trifluoromethyl)pyridin-2-yl)-1,3a,4,5,10,11a-hexahydro-2H-benzo[b]pyrrolo[2,3-f][1,4]diazocine-2,11(3H)-dione], 1.23 nM; in that of `Cc1cc(C(F)(F)F)cc(N2C(=O)C[C@@H]3CN(Cc4nnc5n4CCNC5)c4c(Cl)cccc4N(C)C(=O)[C@H]32)n1` [Example 101, (3aR,11aS)-6-Chloro-10-methyl-1-(6-methyl-4-(trifluoromethyl)pyridin-2-yl)-5-((5,6,7,8-tetrahydro-[1,2,4]triazolo[4,3-a]pyrazin-3-yl)methyl)-1,3a,4,5,10,11a-hexahydro-2H-benzo[b]pyrrolo[2,3-f][1,4]diazocine-2,11(3H)-dione hydrochloride], 3.73 nM. In turn, `Cc1cc(C(F)(F)F)cc(N2C(=O)C[C@@H]3CN(CCO)c4c(F)cccc4N(C)C(=O)[C@H]32)n1` [Example 18, (3aR,11aS)-6-Fluoro-5-(2-hydroxyethyl)-10-methyl-1-(6-methyl-4-(trifluoromethyl)pyridin-2-yl)-1,3a,4,5,10,11a-hexahydro-2H-benzo[b]pyrrolo[2,3-f][1,4]diazocine-2,11(3H)-dione] returned a Ki of 16.7 nM.

Source of the values: patent publication US20260124214A1, “HETEROCYCLIC COMPOUNDS FOR USE IN THE TREATMENT OF CANCER” (ARTIOS PHARMA LIMITED, priority 2021, published 2026).
